The values that follow come from patent US20200407365A1, “INDOLE-2-CARBONYL COMPOUNDS AND THEIR USE FOR THE TREATMENT OF HEPATITIS B” (Novartis AG, priority 2018, published 2020).

Where only a bound is given, the exact number is not on record here.

The test system of the assay is HBV replication in HepG2.cl42 cells. Kind of assay: Anti-HBV assay (HBV DNA by quantitative real time PCR in HepG2.cl42 cells). Type of assay: cell-based, HBV ayw strain. The following applies: Hepatitis B virus, 96 h, compound treatment four days, read-out: HBsAg EC50. A general note: In qPCR the cycle at which signal appears reflects the starting amount.
By EC50 is commonly meant the concentration needed to bring the measured effect to its halfway point. For the molecule `CC1(C)CCN(c2cnn3c2CN(C(=O)c2cc4ccccc4[nH]2)CC3)C1=O` [Compound 1.1, 1-(5-(1H-indole-2-carbonyl)-4,5,6,7-tetrahydropyrazolo[1,5-a]pyrazin-3-yl)-3,3-dimethylpyrrolidin-2-one], the EC50 was greater than 1000 nM. Next, `CC1(C)CC(=O)N(c2cnn3c2CN(C(=O)c2cc4ccccc4[nH]2)CC3)C1` [Compound 1.2]: 100 to 1000 nM; `COC[C@@H]1CN(c2cnn3c2CN(C(=O)c2cc4ccccc4[nH]2)CC3)C(=O)CO1` [Compound 1.3]: 100 to 1000 nM. As for `O=C(c1cc2ccccc2[nH]1)N1CCn2ncc(N3CCOCC3=O)c2C1` [Compound 1.4], the EC50 lay within 100 to 1000 nM. `CC1(C)CN(c2cnn3c2CN(C(=O)c2cc4ccccc4[nH]2)CC3)C(=O)CO1` [Compound 1.5]: the EC50 lay within 100 to 1000 nM. Next, `O=C(c1cc2ccccc2[nH]1)N1CCn2ncc(N3CCCCC3=O)c2C1` [Compound 1.6]: 100 to 1000 nM; `CC1(C)CN(c2cnn3c2CN(C(=O)c2cc4ccccc4[nH]2)CC3)C(=O)O1` [Compound 2.1, 3-(5-(1H-indole-2-carbonyl)-4,5,6,7-tetrahydropyrazolo[1,5-a]pyrazin-3-yl)-5,5-dimethyloxazolidin-2-one]: less than 100 nM; `Cc1c(C(=O)N2CCn3ncc(N4CC(C)(C)OC4=O)c3C2)[nH]c2ccccc12` [Compound 2.2]: greater than 1000 nM.

`CCc1c(C(=O)N2CCn3ncc(N4CC(C)(C)OC4=O)c3C2)[nH]c2ccccc12` [Compound 2.3]: the EC50 is greater than 1000 nM.

For the molecule `CC1(C)CN(c2cnn3c2CN(C(=O)c2[nH]c4ccccc4c2C#N)CC3)C(=O)O1` [Compound 2.4], the EC50 was greater than 1000 nM. To `CC1(C)CN(c2cnn3c2CN(C(=O)c2[nH]c4ccccc4c2Cl)CC3)C(=O)O1` [Compound 2.5] belongs greater than 1000 nM. For the molecule `CC1(C)CN(c2cnn3c2CN(C(=O)c2cc4cc(F)ccc4[nH]2)CC3)C(=O)O1` [Compound 2.6], the EC50 was less than 100 nM. As to `CC1(C)CN(c2cnn3c2CN(C(=O)c2cc4ccc(F)cc4[nH]2)CC3)C(=O)O1` [Compound 2.7], the EC50 was less than 100 nM. Next, `CC1(C)CN(c2cnn3c2CN(C(=O)c2cc4ccc(Cl)cc4[nH]2)CC3)C(=O)O1` [Compound 2.8]: less than 100 nM; `CC1(C)CN(c2cnn3c2CN(C(=O)c2cc4cccc(Cl)c4[nH]2)CC3)C(=O)O1` [Compound 2.9]: 100 to 1000 nM; `COc1ccc2[nH]c(C(=O)N3CCn4ncc(N5CC(C)(C)OC5=O)c4C3)cc2c1` [Compound 2.10]: greater than 1000 nM. Turning to `CC1(C)CN(c2cnn3c2CN(C(=O)c2cc4ccc(C#N)cc4[nH]2)CC3)C(=O)O1` [Compound 2.11], the EC50 fell in the range of 100 to 1000 nM. To `Cc1ccc2cc(C(=O)N3CCn4ncc(N5CC(C)(C)OC5=O)c4C3)[nH]c2c1` [Compound 2.12] belongs less than 100 nM; to `COc1ccc2cc(C(=O)N3CCn4ncc(N5CC(C)(C)OC5=O)c4C3)[nH]c2c1` [Compound 2.13], 100 to 1000 nM. As to `Cc1cccc2[nH]c(C(=O)N3CCn4ncc(N5CC(C)(C)OC5=O)c4C3)cc12` [Compound 2.14], the EC50 is less than 100 nM.

For the molecule `Cc1ccc2[nH]c(C(=O)N3CCn4ncc(N5CC(C)(C)OC5=O)c4C3)cc2c1` [Compound 2.15], the EC50 is 100 to 1000 nM. On to `CC1(C)CN(c2cnn3c2CN(C(=O)c2cc4cc(Cl)ccc4[nH]2)CC3)C(=O)O1` [Compound 2.16], for which the EC50 is 100 to 1000 nM. Next, `CC1(C)CN(c2cnn3c2CN(C(=O)c2cc4cccc(F)c4[nH]2)CC3)C(=O)O1` [Compound 2.17]: 100 to 1000 nM. `Cc1cccc2cc(C(=O)N3CCn4ncc(N5CC(C)(C)OC5=O)c4C3)[nH]c12` [Compound 2.18]: the EC50 lay in the range of 100 to 1000 nM.

With `COc1cccc2cc(C(=O)N3CCn4ncc(N5CC(C)(C)OC5=O)c4C3)[nH]c12` [Compound 2.19], the EC50 is greater than 1000 nM.

With `CC1(C)CN(c2cnn3c2CN(C(=O)c2cc4c(Cl)cccc4[nH]2)CC3)C(=O)O1` [Compound 2.20], the concentration for a half-maximal effect (EC50) is less than 100 nM. `CC1(C)CN(c2cnn3c2CN(C(=O)c2cc4cnc(Cl)cc4[nH]2)CC3)C(=O)O1` [Compound 2.21]: the EC50 was 100 to 1000 nM. As for `CC1(C)CN(c2cnn3c2CN(C(=O)c2cc4c(F)cccc4[nH]2)CC3)C(=O)O1` [Compound 2.22], the EC50 is less than 100 nM. To `C[C@H]1Cn2ncc(N3CC(C)(C)OC3=O)c2CN1C(=O)c1cc2ccccc2[nH]1` [Compound 2.23] belongs greater than 1000 nM; to `COC[C@H]1CN(c2cnn3c2CN(C(=O)c2cc4ccccc4[nH]2)CC3)C(=O)O1` [Compound 3.1, (R)-3-(5-(1H-indole-2-carbonyl)-4,5,6,7-tetrahydropyrazolo[1,5-a]pyrazin-3-yl)-5-(methoxymethyl)oxazolidin-2-one], less than 100 nM. Next, `COC[C@@H]1CN(c2cnn3c2CN(C(=O)c2cc4ccccc4[nH]2)CC3)C(=O)O1` [Compound 3.2]: 100 to 1000 nM; `CC1(C)COC(=O)N(c2cnn3c2CN(C(=O)c2cc4ccccc4[nH]2)CC3)C1` [Compound 3.3]: 100 to 1000 nM. To `O=C(c1cc2ccccc2[nH]1)N1CCc2noc(N3CCCCC3=O)c2C1` [Compound 4.1, 1-(5-(1H-indole-2-carbonyl)-4,5,6,7-tetrahydroisoxazolo[4,3-c]pyridin-3-yl)piperidin-2-one] belongs less than 100 nM.
